Patent US8236509B2, “Method for preparing antibody monolayers which have controlled orientation using peptide hybrid” (Korea Research Institute of Bioscience and Biotechnology, priority 2007, dated 2012)
Entries after “also recorded” stand apart in the source; their conditions may differ.

Experiments:
[1] = target: T1, rabbit originated IgG (Oryctolagus cuniculus, UniProt P01870); assay: SPR binding capacity on peptide-hybrid-treated CM-5 Au sensor chip
T1 construct: purchased Sigma-Aldrich (USA)
T1 sequence (P01870 whole entry): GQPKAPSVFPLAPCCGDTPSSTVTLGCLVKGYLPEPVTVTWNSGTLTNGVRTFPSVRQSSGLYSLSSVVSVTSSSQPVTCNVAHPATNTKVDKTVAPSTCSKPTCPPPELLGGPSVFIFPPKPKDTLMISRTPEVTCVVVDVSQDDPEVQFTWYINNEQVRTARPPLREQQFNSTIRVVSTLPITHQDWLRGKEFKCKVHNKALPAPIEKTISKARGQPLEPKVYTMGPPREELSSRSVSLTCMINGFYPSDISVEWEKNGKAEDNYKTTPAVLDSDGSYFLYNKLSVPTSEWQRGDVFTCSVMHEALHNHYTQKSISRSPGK
Protocol: (§1) Then, PBS containing 100 μM of the peptide hybrid was spilled thereon at the same speed for 30 minutes. […] The surface area remaining non-reacted with the peptide hybrid was inactivated by using 1 M of ethanolamine solution (pH 8.5).

[2] = test system: human originated IgG (HIgGs 1-3); assay: as above
Protocol: as §1

[3] = test system: human, rabbit, mouse and goat antibodies; assay: SPR binding capacity on peptide-hybrid-treated CM-5 Au sensor chip, different antibodies; settings: antibody 5 μg/ml in PBS
Protocol: as §1

[4] = target: T2, rabbit IgG (Oryctolagus cuniculus, UniProt P01870); assay: biochemical
T2 sequence (P01870 whole entry): as above

[5] = Storage stability of glass plate surface-treated with peptide hybrid; format: physicochemical; settings: several months storage at room temperature
Protocol: (§2) The glass plate was treated with a mixed solution of 95% sulfuric acid and 5% hydrogen peroxide (V/V 3:1) at 60° C. for 30 minutes, followed by washing with distilled water and ethanol. The washed glass plate was soaked in 1% APTS, followed by reaction for 4 hours at room temperature to introduce amine group. The amine group introduced glass plate was reacted in 1 M succinic anhydride-DMF solution at 37° C. for 4 hours to generate carboxyl group on the glass plate. The glass plate was washed with distilled water and ethanol and dried using nitrogen gas and then stored in a vacuum drier. The carboxyl group introduced glass plate was treated with a mixed solution of 0.1 M EDC and 0.025 M NHS for 15 minutes to activate its surface. The activated glass plate was washed with distilled water and dried using nitrogen gas. The peptide hybrid for protein immobilization of 1a was dissolved in PBS containing 40% glycerol at the final concentration of 0.5 mg/ml, which was dropped on the glass plate by 1 μl per each drop, followed by reaction for 2 hours. The non-reacted active ester remaining on the glass plate was inactivated by using 1 M of ethanolamine (pH 8.5) and washed with PBS.
The Cy3 labeled antibody solution was dropped on the glass plate surface-treated with the hybrid of 1a by 50 μl per each drop, followed by reaction for one hour at room temperature. […]

[6] = test system: goat originated antibody; assay: SPR binding capacity on peptide-hybrid-treated CM-5 Au sensor chip
Protocol: as §1

[7] = test system: mouse originated antibodies (mixed composition of MIgGs 1-3); assay: as above
Protocol: as §1

[8] = target: T2, rabbit IgG; assay: Cy3-labeled antibody binding to glass plate surface-treated with peptide hybrid (fluorescence); design: purchased Sigma-Aldrich (USA); settings: fluorescence image
Protocol: as §2, with “PBS. […]” for “PBS.”

[9] = test system: CRP; settings: SPR, CRP 5 μg/ml, anti-CRP antibody immobilized via the hybrid
Protocol: Then, PBS containing CRP at the same concentration as the above was spilled thereon, followed by measuring the antigen-antibody binding by surface plasmon resonance (SPR) using Biacore 3000. The surface of the chip was recovered by 20 mM NaOH solution for the repeat of the experiment to measure the antigen-antibody binding.
A buffer containing 0.2 M EDC and 0.05 M NHS was spilled on the dextran CM-5 Au sensor chip (BIacore AB, Sweden) at the speed of 7 μl/minute to activate carboxyl group on the surface of the sensor chip. Then, PBS containing 5 μg/ml of anti-CRP antibody was spilled thereon for 30 minutes at the same speed. The antibody was bound via the reaction of the terminal amine group with the carboxyl group on the sensor chip activated as NHS ester form. The surface not reacted with the antibody was inactivated by using 1 M ethanolamine solution (pH 8.5).
PBS containing 5 μg/ml of CRP was spilled on the anti-CRP antibody chip with the chemical immobilization and the anti-CRP antibody chip with the immobilization by the peptide hybrid of 1a respectively at the speed of 10 μl/minute, followed by measuring the degree of antigen-antibody binding by surface plasmon resonance using Biacore 3000.

[10] = test system: goat IgG; assay: Cy3-labeled antibody binding to glass plate surface-treated with peptide hybrid (fluorescence); settings: fluorescence image
Protocol: as §2, with “PBS. […]” for “PBS.”

[11] = test system: human originated HIgG; assay: Antibody binding to magnetic micro beads surface-treated with peptide hybrid (PAGE); settings: antibody 0.1 mg/ml, bead 2 mg/ml
Protocol: (§3) The surface of the magnetic micro bead containing a carboxyl group was activated by loading 25 mM of MES (pH 6) containing NHS (0.4 M) and EDC (0.2 M). Only magnetic micro bead was recovered by using a magnet and the activated magnetic micro bead was reacted with 0.2 mg/ml of the peptide hybrid of 1a at room temperature for one hour. The activated magnetic micro bead was reacted with PBS alone for the control group. Non-reacted active ester group was inactivated by using 1 M of ethanolamine (pH 8.5). Both the magnetic micro bead with the peptide hybrid of 1a attached and the magnetic micro bead without the peptide hybrid of 1a were repeatedly washed by PBS and diluted in PBS (final concentration: 5 mg/ml).
(§4) To confirm the binding of the magnetic micro bead adhered with the peptide hybrid of 1a to the antibody, 2 mg/ml (final concentration) of the magnetic micro bead and 0.1 mg/ml of the antibody used in Example <3-2> were mixed to induce binding reaction. After inducing reaction for one hour at room temperature, the magnetic micro bead was dragged down to the bottom of the vessel by using a magnet and the supernatant was eliminated. This process was repeated five times to remove the non-reacted antibodies. The magnetic micro bead reacted with the antibody was added in PAGE loading buffer containing a reducing agent (2-mercaptoethanol), which was heated to separate the antibody chain from the magnetic micro bead, followed by PAGE.
(§5) The antibody bound to the magnetic micro bead was quantified by using 12% polyacrylamide gel containing 10% SDS. Particularly, 20 μl of PBS containing 2% micro bead was mixed with 5 μl of sample buffer (pH 6.8; 60 mM Tris-HCl, 25% glycerol, 2% SDS, 14.4 mM 2-mercaptoethanol, 0.1% bromophenol blue, H2O), followed by heating at 90° C. for 10 minutes. 15 μl of the sample was placed on each well of polyacrylamide gel. 200 V of voltage was applied thereto at room temperature for one hour to migrate sample, followed by dipping the gel in the staining solution (0.5% coomassie blue, 45% methanol, 10% acetic acid solution) at room temperature for 30 minutes. Upon completion of staining, the gel was transferred into the destaining solution (10% methanol, 10% acetic acid solution), followed by stirring at room temperature for 3 hours. The excessive staining reagent was eliminated by washing.

[12] = target: T1, rabbit originated IgG; assay: as above; settings: antibody 0.1 mg/ml, bead 2 mg/ml
Protocol: as §3, §4, §5

[13] = test system: mouse originated IgG; assay: as above; settings: antibody 0.1 mg/ml, bead 2 mg/ml
Protocol: as §3, §4, §5

[14] = test system: goat originated IgG; assay: as above; settings: antibody 0.1 mg/ml, bead 2 mg/ml
Protocol: as §3, §4, §5

[15] = test system: HIgG (mixture of HIgG 1-HIgG 3); assay: Cy3-labeled antibody binding to glass plate surface-treated with peptide hybrid (fluorescence); design: species or system human; settings: fluorescence image
Protocol: as §2, with “PBS. […]” for “PBS.”

[16] = test system: MIgG3; assay: SPR binding capacity, antibody isotypes; design: species or system mouse; settings: CM-5 Au sensor chip
Protocol: as §1

[17] = test system: MIgG2; assay: SPR binding capacity, antibody isotypes; design: species or system mouse; settings: CM-5 Au sensor chip
Protocol: as §1

[18] = test system: MIgGA; assay: SPR binding capacity, antibody isotypes; design: species or system mouse; settings: CM-5 Au sensor chip
Protocol: as §1

[19] = target: HIgG1; assay: SPR binding affinity (Biacore 3000, nonlinear regression); design: species or system human; settings: antibody 100-1,000 nM, CM-5 chip
Protocol: The values were analyzed by nonlinear regression using BIAevaluation software equipped in Biacore 3000 to draw a theoretical line graph (FIG. 4a).

[20] = test system: MIgG (mixture of MIgG 1-MIgG 3); assay: Cy3-labeled antibody binding to glass plate surface-treated with peptide hybrid (fluorescence); design: species or system mouse; settings: fluorescence image
Protocol: as §2, with “PBS. […]” for “PBS.”

[21] = target: T3, MIgG1 (Mus musculus, UniProt P01868); assay: SPR binding capacity, antibody isotypes; settings: CM-5 Au sensor chip
T3 construct: purchased Sigma-Aldrich (USA)
Protocol: as §1

[22] = test system: HIgG2; assay: SPR binding capacity, antibody isotypes; design: species or system human; settings: CM-5 Au sensor chip
Protocol: as §1

[23] = test system: HIgG3; assay: SPR binding capacity, antibody isotypes; design: species or system human; settings: CM-5 Au sensor chip
Protocol: as §1

[24] = test system: HIgG1; assay: SPR binding capacity, antibody isotypes; design: species or system human; settings: CM-5 Au sensor chip
Protocol: as §1

[25] = Stability of peptide-treated chip surface to washing with 20 mM NaOH and reuse; format: physicochemical; settings: CM-5 chip, reused for antigen-antibody binding
[26] = target: BSA (Bos taurus, UniProt P02769); assay: SPR binding capacity on peptide-hybrid-treated CM-5 Au sensor chip (control protein)
Protocol: as §1

Molecule: H2N(CH2CH2O)nCH2CH2COXDC*AWHLGELVWC*T-CONH2 [formula 1]
- binding to rabbit originated antibodies (SPR), in words [1]: strongly bound
- binding to human originated antibodies (SPR), in words [2]: strongly bound
- binding to the different types of antibodies (SPR) [3]: strongly attached

Molecule: CC(C)C[C@@H]1NC(=O)[C@H](Cc2c[nH]cn2)NC(=O)[C@H](Cc2c[nH]c3ccccc23)NC(=O)[C@H](C)NC(=O)[C@@H](NC(=O)[C@H](CC(=O)O)NC(=O)[C@H](CC(=O)O)NC(=O)[C@H](CCC(=O)O)NC(=O)CCOCCOCCN)CSSC[C@@H](C(=O)N[C@H](C(N)=O)[C@@H](C)O)NC(=O)[C@H](Cc2c[nH]c3ccccc23)NC(=O)[C@H](C(C)C)NC(=O)[C@H](CC(C)C)NC(=O)[C@H](CCC(=O)O)NC(=O)CNC1=O [formula 1a, H2N(CH2CH2O)2CH2CH2COEDDC*AWHLGELVWC*T-CONH2]
- Kd [4]: 305 nM
- antibody binding capacity of surface-treated glass plate after storage [5]: maintain its antibody binding capacity
- binding to rabbit originated antibodies (SPR), in words [1]: immobilized effectively
- SPR binding level, rabbit originated IgG ([1]; saturated level): 12000 RU
- binding to human originated antibodies (SPR), in words [2]: immobilized effectively
- SPR binding level, human originated IgG ([2]; saturated level): 12000 RU
- binding to goat originated antibody (SPR), in words [6]: not successfully immobilized; also recorded: only at minimum level
- binding to mouse originated antibodies (SPR), in words [7]: not successfully immobilized; also recorded: only at minimum level
- binding of rabbit originated antibodies to glass plate [8]: bound very well
- antigen-antibody binding capacity relative to chip with chemically immobilized anti-CRP antibody [9]: approximately 1.6 fold
- binding of goat originated antibodies to glass plate [10]: not bound well
- binding to human originated HIgG, magnetic micro bead [11]: effectively bound
- binding to rabbit originated IgG, magnetic micro bead [12]: effectively bound
- binding to mouse originated IgG, magnetic micro bead [13]: not
- binding to goat originated IgG, magnetic micro bead [14]: not
- binding of human originated antibodies to glass plate [15]: bound very well
- binding to MIgG3 (SPR), in words [16]: to some degree
- binding to MIgG2 (SPR), in words [17]: hardly bound
- binding to MIgGA (SPR), in words [18]: hardly bound
- Kd [19]: 85 nM
- binding of mouse originated antibodies to glass plate [20]: not bound well
- binding to MIgG1 (SPR), in words [21]: hardly bound
- binding to HIgG2 (SPR), in words [22]: particularly strongly bound; also recorded: effectively bound
- binding to HIgG3 (SPR), in words [23]: barely bound
- binding to HIgG1 (SPR), in words [24]: particularly strongly bound; also recorded: effectively bound
- antibody binding capacity of the peptide-treated surface after washing with 20 mM NaOH [25]: without reducing the antibody binding capacity; also recorded: antibody binding capacity was not reduced
- binding to BSA (SPR), in words [26]: not bound
